Square brackets hold non-standard residues; d marks the D form. Peptide text beside a SMILES is read from it. * marks the point of attachment. Fmoc = O=C(OCC1c2ccccc2-c2ccccc21)*; Gly(SPh) = N[C@@H](Sc1ccccc1)C(=O)O
What was measured:
MT4 [1] = assay: In vitro antiviral activity against HIV-1 replication in MT-4 cells was determined by 50% inhibition of syncytia formation: Inactive; assay type: functional, cell-based, Homo sapiens
MT4 [2] = assay: In vitro antiviral activity against HIV-1 replication in MT-4 cells was determined by 50% inhibition of syncytia formation: Inactive / toxic; assay type: functional, cell-based, Homo sapiens
[3] = Therapeutic index was determined by the ratio of ID50/IC50 (ID50: Dose required to cause death of 50% of uninfected MT-4 cells); assay type: cell-based, MT4; conditions: human, MT-4 cells (uninfected, for ID50); read-out: TI
MT4 [4] = assay: In vitro antiviral activity against HIV-1 replication in MT-4 cells was determined by 50% inhibition of syncytia formation; assay type: functional, cell-based; conditions: Homo sapiens

| Molecule | IC50 (MT4 [1]) | IC50 (MT4 [2]) | selectivity ratio [3] | IC50 (MT4 [4]) |
| --- | --- | --- | --- | --- |
| C=CCOC(=O)C(NC(=O)C(CC(C)C)NC(=O)OC(C)(C)C)Sc1ccccc1 (stereo not given) | Not Active | – | – | – |
| CC(C)CC(NC(=O)OC(C)(C)C)C(=O)NC(Sc1ccccc1)C(=O)O (stereo not given) | Not Active | – | – | – |
| CC[C@H](C)[C@H](NC(=O)OCC1c2ccccc2-c2ccccc21)C(=O)N[C@@H](CCCN=C(N)N)C(=O)N[C@@H](CCCCN)C(=O)N[C@H](C(=O)N[C@@H](CC(C)C)C(=O)N[C@@H](Sc1ccccc1)C(=O)N[C@@H](CC(C)C)C(=O)N[C@@H](CC(=O)O)C(=O)NCC(N)=O)[C@@H](C)CC (Fmoc-IRKIL[Gly(SPh)]LDG-NH2) | – | Toxic | – | – |
| CC[C@H](C)[C@H](NC(=O)CNC(=O)[C@H](CC(=O)O)NC(=O)[C@H](CC(C)C)NC(=O)[C@@H](NC(=O)[C@H](CC(C)C)NC(=O)[C@@H](NC(=O)[C@H](CCCCN)NC(=O)[C@H](CCCN=C(N)N)NC(=O)[C@@H](NC(=O)OCC1c2ccccc2-c2ccccc21)[C@@H](C)CC)[C@@H](C)CC)Sc1ccccc1)C(=O)O (Fmoc-IRKIL[Gly(SPh)]LDGI-OH) | – | – | 10 | 100 µM |
| CC[C@H](C)[C@H](N)C(=O)N[C@@H](CCCN=C(N)N)C(=O)N[C@@H](CCCCN)C(=O)N[C@H](C(=O)N[C@@H](CC(C)C)C(=O)N[C@@H](Sc1ccccc1)C(=O)N[C@@H](CC(C)C)C(=O)N[C@@H](CC(=O)O)C(=O)NCC(N)=O)[C@@H](C)CC (H-IRKIL[Gly(SPh)]LDG-NH2) | – | – | 50 | 5 µM |
| CC[C@H](C)[C@H](N)C(=O)N[C@@H](CCCN=C(N)N)C(=O)N[C@@H](CCCCN)C(=O)N[C@H](C(=O)N[C@@H](CC(C)C)C(=O)N[C@@H](Sc1ccccc1)C(=O)N[C@@H](CC(C)C)C(=O)N[C@@H](CC(=O)O)C(=O)NCC(=O)N[C@H](C(=O)O)[C@@H](C)CC)[C@@H](C)CC (H-IRKIL[Gly(SPh)]LDGI-OH) | – | – | 10 | 10 µM |
| H-IRKILFLDGI-OH | Not Active | – | – | – |
